In US20160021879A1, “SYNTHETIC LIPOAMINO ACID GLUCOSAMINE DERIVATIVES FOR IMPROVEMENT OF PLANT GROWTH AND YIELD” (E.I. DU PONT DE NEMOURS AND COMPANY, priority 2013, published 2016):

Experiments:
soybean seeds [1] = assay: Seed germination assay (soybean seeds in Petri dishes, radicle emergence counted); type: in vivo; conditions: control 24%; for percent germination of treated soybean seeds: 10^-7 M in DI-water, at 20 h, dark, room temperature; for Germination Yield: summary table, 10^-7 M, 20 h
Method: Materials were all sterilized before use. An aqueous solution of the test compound (25 mL, 10^−7 M in DI-water) was prepared for a set of five repeat experiments. Five Petri dishes and 100 soybean seeds were used to test one compound. A piece of Whatman filter paper was used to cover the inner side of each Petri dish to allow uniform distribution of testing solution. Twenty soybean seeds were placed on the filter paper area of one Petri dish. Five mL of the test compound solution was carefully poured in the Petri dish. Control experiments were set up the same way with 20 soybean seeds and 5 mL of DI-water per dish without any compounds. The lid was placed on the Petri dish and sealed with Parafilm. Five dishes with repeat experiments were stacked. One stack of dishes was wrapped twice with aluminum foil to prevent the seeds from receiving any light. The stacks were transferred to an incubator maintained at room temperature and the seeds were germinated in the dark. After 20 h, the stacks were pulled out for measurement. The number of germinated seeds was counted and the percent germination on each dish was calculated. Radicle emergence was used as the germination indicator. The dishes were placed unwrapped at room temperature for one day and the number of germinated seeds was counted to ensure seeds were viable and that the germination results were not caused by poor seed quality. Dishes in which over 90% of the seeds germinated were considered normal. The standard deviation of five repeats was calculated. Test results with a 10% or lower standard deviation were considered good. Compounds acting as plant performance enhancers should promote a statistically significant increase in average percentage of germination compared to the control.

soybean seeds [2] = assay: Plant growth assay (radical length of germinated soybean seeds); type: in vivo; conditions: control 55%; for percentage of germinated soybean seeds with radical length greater than 1.5 cm: 10^-7 M, germinated 24 h, then light for additional 40 h; for Growth Assay: summary table, seeds with radical length > 1.5 cm
Method: Seeds germinated for 24 h using the seed germination assay above were exposed to light for an additional 40 h. The radical length was measured and the percentage of germinating seeds with a radical length greater than 1.5 cm was determined.

SMILES	percent germination of treated soybean seeds (soybean seeds [1]) [%]	Germination Yield (soybean seeds [1]) [%]	percentage of germinated soybean seeds with radical length greater than 1.5 cm (soybean seeds [2]) [%]	Growth Assay (soybean seeds [2]) [%]
CCCCCC/C=C/CCCCCCC/C=C/C(=O)NCC(=O)NC1C(OC2C(CO)OC(OC3C(CO)OC(OC4C(CO)OC(OC)C(NC(C)=O)C4O)C(NC(C)=O)C3O)C(NC(C)=O)C2O)OC(CO)C(O)C1O [Compound 21, Methyl 2-deoxy-2-N-({[(2E,11E)-octadeca-2,11-dienoylamino]acetyl}amino)β-D-glucopyranosyl(1→4)-2-acetamido-2-deoxy-β-D-glucopyranosyl-(1→4)-2 acetamido-2-deoxy-β-D-glucopyranosyl-(1→4)-2 acetamido-2-deoxy-β-D-glucopyranoside]	36	36	73	73
CCCCCC/C=C\CCCCCCC/C=C/C(=O)NCC(=O)NC1C(OC)OC(CO)C(O)C1O (centres unmarked) [Compound 7, methyl 2-deoxy-2-({[(2E,11Z)-octadeca-2,11-dienoylamino]acetyl}amino)hexopyranoside]	46	46	79	79
COC1OC(CO)C(O)C(O)C1NC(=O)CNC(=O)C#Cc1ccccc1 [Compound 19, Methyl 2-deoxy-2-N-({[(3-phenylprop-2-ynoyl)amino]acetyl}amino)-β-D-glucopyranoside]	30	30	71	71
COC(=O)C(CCC(=O)NC1C(OC)OC(CO)C(O)C1O)NC(=O)/C=C/C=C/c1ccccc1 (centres unmarked) [Compound 15, methyl 5-{[4,5-dihydroxy-6-(hydroxymethyl)-2-methoxytetrahydro-2H-pyran-3-yl]amino}-5-oxo-2-{[(2E,4E)-5-phenylpenta-2,4-dienoyl]amino}pentanoate]	31	31	74	74
CO[C@@H]1O[C@H](CO)[C@@H](O)[C@H](O)[C@H]1NC(=O)[C@H](Cc1ccccc1)NC(=O)/C=C/C=C/c1ccccc1 [Compound 13, Methyl 2-deoxy-2-({N-[(2E,4E)-5-phenylpenta-2,4-dienoyl]phenylalanyl}amino)-β-D-glucopyranoside]	32	32	80	80
CO[C@@H]1O[C@H](CO)[C@@H](O)[C@H](O)[C@H]1NC(=O)CNC(=O)/C=C/c1cccc(C(F)(F)F)c1 [Compound 17, methyl 2-deoxy-2-{[({(2E)-3-[3-(trifluoromethyl)phenyl]prop-2-enoyl}amino)acetyl]amino}-β-D-glucopyranoside]	44	44	86	86
CCCCCC/C=C\CCCCCCCC(=O)NCC(=O)NC1C(OC)OC(CO)C(O)C1O [Compound 9, Methyl 2-deoxy-2-N-({[(9Z)-hexadec-9-enoylamino]acetyl}amino)-β-D-glucopyranoside]	33	33	73	73
CO[C@@H]1O[C@H](CO)[C@@H](O)[C@H](O)[C@H]1NC(=O)CNC(=O)/C=C/C=C/c1ccccc1 [Compound 11, methyl 2-deoxy-2-[({[(2E,4E)-5-phenylpenta-2,4-dienoyl]amino}acetyl)amino]-β-D-glucopyranoside]	39	39	82	82
